Results published in patent US8759261B2, “Method and composition for enhanced hydrocarbons recovery” (Shell Oil Company, priority 2008, dated 2014).

Assay: Solvent addition to improve aqueous solubility of IOS blend in seawater brine
Assay type: physicochemical
Protocol: The first attempt to improve the aqueous solubility of these blends was to use small amounts of solvents added to an IOS blend and seawater brine. One percent solvent was added to 3.2% brine solutions (see Table 1 for brine composition) containing a 0.2% blend of 78% IOS 2024 and 22% IOS 2428. This particular surfactant blend had been identified for minimizing the oil-water interfacial tension between the crude oil and brine representative of a North Sea reservoir. Additions of 1% hexylene glycol, 1-hexanol, polyethylene glycol (mw=400) and sodium xylene sulfonate were studied.
A small amount of alcohol ethoxylate (8% relative to the IOS) was added to a second sample of sodium xylene sulfonate.

| Substance | solubilizing of the solid in the IOS blend | remaining precipitate after addition of nonionic (second sample with 1% sodium xylene sulfonate plus alcohol ethoxylate (8% relative to the IOS), 3.2% brine, 0.2% IOS blend) |
| --- | --- | --- |
| polyethylene glycol (mw=400) | solubilizing most but not all of the solid |  |
| sodium xylene sulfonate |  | eliminated the rest of the precipitate |
